In EPA's ToxRefDB 2:

Columns and labels:
rat [1] = details: Subchronic oral toxicity in rodents, fischer, Gavage/Intubation, dose end: 13 week, group: systemic
mouse [2] = details: Subchronic oral toxicity in rodents, b6c3f1, Gavage/Intubation, dose end: 13 week, group: systemic
mouse [3] = details: Carcinogenicity, cd1, Oral, Feed, dose end: 22 month, group: systemic
rabbit = details: Prenatal developmental toxicity study, new zealand white, Oral, Gavage/Intubation, dose end: 19 GD
dog [4] = details: Chronic toxicity; beagle; Oral; Capsule; dose end: 12 month; group: systemic; systemic / in life observation / clinical signs / emesis + systemic / in life observation / clinical signs / mucoid stools + systemic / in …
mouse [5] = details: Carcinogenicity; cd1; Oral; Feed; dose end: 113 week; group: systemic; systemic / pathology microscopic / intestine small / adenocarcinoma + systemic / pathology microscopic / intestine small / adenoma + …
rat [6] = details: Chronic toxicity, sprague dawley, Oral, Feed, dose end: 98 week, group: cholinesterase
dog [7] = details: Chronic toxicity, beagle, Oral, Feed, dose end: 52 week
rat [8] = details: Prenatal developmental toxicity study, sprague dawley, Oral, Gavage/Intubation, dose end: 15 GD
rat [9] = details: Subchronic oral toxicity in rodents, sprague dawley, Feed, dose end: 90 day
rat [10] = details: Developmental neurotoxicity range-finding study, sprague dawley, Oral, Feed, dose end: 21 PND, group: cannot be grouped
[11] = systemic / clinical chemistry / albumin / albumin + systemic / clinical chemistry / protein / protein + systemic / hematology / mean …
[12] = systemic / in life observation / clinical signs / lacrimation + systemic / hematology / mean corpuscular (cell) volume (mcv) / mean …
[13] = systemic / in life observation / clinical signs / hyperactivity + systemic / in life observation / mortality / mortality + systemic / …
[14] = systemic / pathology microscopic / intestine small / neoplasm nos + systemic / pathology microscopic / stomach / neoplasm nos + systemic / …
[15] = group: developmental, developmental / developmental malformation / bone / delayed ossification + developmental / developmental malformation / bone / full …
[16] = group: maternal, systemic / in life observation / body weight / body weight gain + systemic / in life observation / clinical signs / anorexia + systemic / in…
[17] = cholinesterase / cholinesterase / cholinesterase / plasma cholinesterase (che)
[18] = cholinesterase / cholinesterase / cholinesterase / plasma cholinesterase (che) + cholinesterase / cholinesterase / cholinesterase / brain …
[19] = group: cholinesterase, cholinesterase / cholinesterase / cholinesterase / cholinesterase (che) + cholinesterase / cholinesterase / cholinesterase / plasma …
[20] = group: systemic, systemic / organ weight / lung / relative to brain weight
[21] = group: developmental, developmental / developmental malformation / bone / short + systemic / in life observation / body weight / fetal weight
[22] = group: maternal, systemic / in life observation / body weight / body weight gain + reproductive / reproductive performance / postimplantation loss / …
[23] = group: cholinesterase, cholinesterase / cholinesterase / cholinesterase / plasma cholinesterase (che)
[24] = group: cholinesterase, cholinesterase / cholinesterase / cholinesterase / plasma cholinesterase (che) + cholinesterase / cholinesterase / cholinesterase / brain …
[25] = group: systemic, systemic / in life observation / body weight / body weight gain + systemic / in life observation / clinical signs / aggressive behavior + …

## C[N+](C)(C)Cc1ccccc1.[Cl-] [Benzyltrimethylammonium chloride]
Rat [1]; [11]
  LOAEL: > 100 mg/kg/day
  NOAEL: ≥ 100 mg/kg/day
Rat [1]; [12]
  LEL: 12.5 mg/kg/day
  NEL: < 12.5 mg/kg/day
Mouse [2]; systemic / clinical chemistry / protein / protein
  LEL: 25 mg/kg/day
Mouse [2]; systemic / clinical chemistry / protein / protein + systemic / in life observation / mortality / mortality + systemic / organ weight / heart…
  NEL: 12.5 mg/kg/day
Mouse [2]; [13]
  LOAEL: > 100 mg/kg/day
  NOAEL: ≥ 100 mg/kg/day

## O=C1C2CC=CCC2C(=O)N1SC(Cl)(Cl)Cl (stereo not given) [Captan]
Mouse [3]; systemic / in life observation / body weight / body weight + systemic / in life observation / food consumption / food consumption
  LOAEL: 925 mg/kg/day
Mouse [3]; systemic / pathology microscopic / intestine small / neoplasm nos + systemic / pathology microscopic / stomach / neoplasm nos
  LEL: 60.9 mg/kg/day
Mouse [3]; [14]
  NEL: 15.1 mg/kg/day
  NOAEL: 123 mg/kg/day
rabbit; [15]
  LEL: 30 mg/kg/day
  LOAEL: 30 mg/kg/day
  NEL: 10 mg/kg/day
  NOAEL: 10 mg/kg/day
rabbit; [16]
  LEL: 30 mg/kg/day
  LOAEL: 30 mg/kg/day
  NEL: 10 mg/kg/day
  NOAEL: 10 mg/kg/day
Dog [4]
  LEL: 300 mg/kg/day
  LOAEL: 300 mg/kg/day
  NEL: 60 mg/kg/day
  NOAEL: 60 mg/kg/day
Mouse [5]
  LEL: 599 mg/kg/day
  LOAEL: > 1880 mg/kg/day
  NEL: < 599 mg/kg/day
  NOAEL: ≥ 1880 mg/kg/day

## CCOP(=S)(OCC)Oc1cc(C)nc(C(C)C)n1 [Diazinon]
Rat [6]; [17]
  LEL: 0.06 mg/kg/day
  LOAEL: 0.06 mg/kg/day
Rat [6]; [18]
  NEL: 0.004 mg/kg/day
  NOAEL: 0.004 mg/kg/day
Dog [7]; group: cholinesterase, cholinesterase / cholinesterase / cholinesterase / cholinesterase (che)
  LEL: 0.015 mg/kg/day
Dog [7]; group: cholinesterase, cholinesterase / cholinesterase / cholinesterase / cholinesterase (che) + cholinesterase / cholinesterase / cholinesterase / brain …
  NEL: 0.0032 mg/kg/day
Dog [7]; [19]
  LOAEL: 0.02 mg/kg/day
  NOAEL: 0.0037 mg/kg/day
Dog [7]; group: systemic, systemic / clinical chemistry / [other] / [other] + systemic / in life observation / food consumption / food consumption
  LOAEL: 4.5 mg/kg/day
Dog [7]; group: systemic, systemic / clinical chemistry / [other] / [other] + systemic / in life observation / food consumption / food consumption + systemic / in …
  NOAEL: 0.02 mg/kg/day
Dog [7]; [20]
  LEL: 0.0037 mg/kg/day
  NEL: < 0.0037 mg/kg/day
Rat [8]; group: developmental, developmental / developmental malformation / bone / short
  LOAEL: 100 mg/kg/day
Rat [8]; [21]
  LEL: 100 mg/kg/day
  NEL: 20 mg/kg/day
  NOAEL: 20 mg/kg/day
Rat [8]; group: maternal, systemic / in life observation / body weight / body weight gain
  LOAEL: 100 mg/kg/day
Rat [8]; [22]
  LEL: 100 mg/kg/day
  NEL: 20 mg/kg/day
  NOAEL: 20 mg/kg/day
Rat [9]; [23]
  LEL: 0.3 mg/kg/day
  LOAEL: 0.3 mg/kg/day
Rat [9]; [24]
  NEL: 0.03 mg/kg/day
  NOAEL: 0.03 mg/kg/day
Rat [9]; [25]
  LEL: 168 mg/kg/day
  LOAEL: > 168 mg/kg/day
  NEL: 15 mg/kg/day
  NOAEL: ≥ 168 mg/kg/day
Rat [10]; [17]
  LOAEL: 0.063 mg/kg/day
Rat [10]; [18]
  LEL: 0.063 mg/kg/day
  NEL: 0.0125 mg/kg/day
  NOAEL: 0.0125 mg/kg/day
